Laboratory results reported in US10407398B2, “Inhibitors of Pseudomonas aeruginosa LecB” (priority 2015, dated 2019).

Columns and labels:
LecBPAO1 [1] = biological target: T1, LecBPAO1 (Pseudomonas aeruginosa, UniProt Q9HYN5); assay: biochemical; type: binding
T1 construct: made in house

LecBPA14 [2] = biological target: T2, LecBPA14 (Pseudomonas aeruginosa, UniProt A0A0H2ZE85); assay: biochemical; type: binding, Pseudomonas aeruginosa UCBPP-PA14
Experimental: The measured intensities were reduced by buffer values and fluorescence polarization was calculated. The data were analyzed using BMG Labtech MARS software and/or with Graphpad Prism and fitted according to the four parameter variable slope model. […] A minimum of three independent measurements of triplicates each was performed for every ligand.

LecB = LecB (Pseudomonas aeruginosa, UniProt Q9HYN5); details: background art; cited from earlier work
LecBPAO1 [3] = biological target: T1, LecBPAO1; assay: Microcalorimetric assay (ITC) for direct binding; details: for N: ITC binding stoichiometry, one site binding model; for N / ΔG / ΔH / −TΔS: LecBPAO1; for ΔG / ΔH / −TΔS: ITC, 25° C.
Experimental: (§1) The temperature of the sample cell was 25° C. The titration was performed with a solution of ligands in the same buffer.

LecBPA14 [4] = biological target: T2, LecBPA14; assay: biochemical; type: binding, Pseudomonas aeruginosa UCBPP-PA14; details: for N: ITC binding stoichiometry, one site binding model; for N / ΔG / ΔH / −TΔS: LecBPA14; for ΔG / ΔH / −TΔS: ITC, 25° C.
Experimental: as §1

T1 sequence (Q9HYN5 entry or part of it): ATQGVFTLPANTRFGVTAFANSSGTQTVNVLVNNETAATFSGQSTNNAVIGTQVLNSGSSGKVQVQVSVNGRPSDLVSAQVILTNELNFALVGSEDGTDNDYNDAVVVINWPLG
T2 sequence (A0A0H2ZE85 entry or part of it): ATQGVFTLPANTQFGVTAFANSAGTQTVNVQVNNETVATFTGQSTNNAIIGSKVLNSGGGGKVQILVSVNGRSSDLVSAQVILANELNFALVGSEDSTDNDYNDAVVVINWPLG
LecB, sequence (Q9HYN5 entry or part of it): as the sequence (Q9HYN5 entry or part of it) above

## CC1OCC(O)C(O)[C@@]1(O)CCNS(C)(=O)=O (stereo partly drawn) [1-deoxy-4(R)—C-(ethylmethylsulfonamide) L-fucose]
LecBPAO1 [1]
  IC50: 0.44 ± 0.07 µM
LecBPA14 [2]
  IC50: 0.15 ± 0.02 µM

## CC1OCC(O)C(O)[C@@]1(O)Cc1ccccc1 (stereo partly drawn) [1-deoxy-4(S)—C-(benzyl) L-fucose]
LecBPAO1 [1]
  IC50: 2.61 ± 0.02 µM
LecBPA14 [2]
  IC50: 0.62 ± 0.08 µM

## CC1OCC(O)C(O)[C@@]1(O)CC#N (stereo partly drawn) [1-deoxy-4(S)—C-(cyanomethyl) L-fucose]
LecBPAO1 [1]
  IC50: 1.69 ± 0.15 µM
LecBPA14 [2]
  IC50: 0.58 ± 0.11 µM

## CC1OCC(O)C(O)[C@@]1(O)C1CCCCC1 (stereo partly drawn) [1-deoxy-4(S)—C-(cyclohexyl) L-fucose]
LecBPAO1 [1]
  IC50: 2.59 ± 0.09 µM
LecBPA14 [2]
  IC50: 0.75 ± 0.13 µM

## CCCCCC[C@@]1(O)C(C)OCC(O)C1O (stereo partly drawn) [1-deoxy-4(S)—C-(hexyl) L-fucose]
LecBPAO1 [1]
  IC50: 0.61 ± 0.09 µM
LecBPA14 [2]
  IC50: 0.33 ± 0.16 µM

## CC(C)CC[C@@]1(O)C(C)OCC(O)C1O (stereo partly drawn) [1-deoxy-4(S)—C-(isopentyl) L-fucose]
LecBPAO1 [1]
  IC50: 0.78 ± 0.09 µM
LecBPA14 [2]
  IC50: 0.45 ± 0.12 µM

## CC1OCC(O)C(O)[C@]1(C)O (stereo partly drawn) [1-deoxy-4(S)—C-(methyl) L-fucose]
LecBPAO1 [1]
  IC50: 0.46 ± 0.07 µM
LecBPA14 [2]
  IC50: 0.17 ± 0.03 µM

## CC1OCC(O)C(O)[C@@]1(O)c1ccccc1 (stereo partly drawn) [1-deoxy-4(S)—C-(phenyl) L-fucose]
LecBPAO1 [1]
  IC50: 4.97 ± 0.36 µM
LecBPA14 [2]
  IC50: 1.48 ± 0.08 µM

## CCC[C@@]1(O)C(C)OCC(O)C1O (stereo partly drawn) [1-deoxy-4(S)—C-(propyl) L-fucose]
LecBPAO1 [1]
  IC50: 0.66 ± 0.09 µM
LecBPA14 [2]
  IC50: 0.23 ± 0.05 µM

## CC(=O)N[C@H]1C(O)O[C@H](CO)[C@@H](O[C@@H]2O[C@@H](C)[C@@H](O)[C@@H](O)[C@@H]2O)[C@@H]1O[C@@H]1O[C@H](CO)[C@H](O)[C@H](O)[C@H]1O (stereo partly drawn) [Lewis^a trisaccharide, α-Fuc1-4((βGal1-3)-GlcNAc]
LecB
  Kd: 0.21 µM

## CC1OCC(O)C(O)[C@@H]1O (stereo partly drawn) [drawing 74, 1-deoxy-L-fucose, reference compound]
LecBPAO1 [1]
  IC50: 1.55 ± 0.5 µM
LecBPA14 [2]
  IC50: 0.6 ± 0.14 µM

## CC[C@@]1(O)C(C)OCC(O)C1O (stereo partly drawn) [drawing 82, 1-deoxy-4(S)—C-(ethyl) L-fucose]
LecBPAO1 [1]
  IC50: 0.39 ± 0.06 µM
LecBPA14 [2]
  IC50: 0.14 ± 0.03 µM

## CCCC[C@@]1(O)C(C)OCC(O)C1O (stereo partly drawn) [drawing 84, 1-deoxy-4(S)—C-(butyl) L-fucose]
LecBPAO1 [1]
  IC50: 0.65 ± 0.01 µM
LecBPA14 [2]
  IC50: 0.23 ± 0.03 µM

## Cc1cc(C)c(S(=O)(=O)NC[C@H]2OC(C)[C@@H](O)C(O)C2O)c(C)c1 (stereo partly shown) [drawing 93]
LecBPAO1 [1]
  IC50: 0.98 ± 0.06 µM
LecBPA14 [2]
  IC50: 0.42 ± 0.2 µM

## CC1O[C@H](CNC(=O)/C=C/c2ccccc2)C(O)C(O)[C@@H]1O (stereo partly shown) [drawing 111]
LecBPAO1 [1]
  IC50: 4.21 ± 0.94 µM
LecBPA14 [2]
  IC50: 2.49 ± 0.2 µM

## CC1OCC(O)C(O)[C@@H]1O (stereo partly drawn) [drawing 115, 1-deoxy-L-fucose, reference compound]
LecBPAO1 [3]
  Kd: 0.773 ± 0.11 µM
  N: 1.07 ± 0.03
  ΔG: -8.34 ± 0.0837 kcal/mol
  ΔH: -8.68 ± 0.217 kcal/mol
  −TΔS: 0.327 ± 0.272 kcal/mol
LecBPA14 [4]
  Kd: 0.453 ± 0.12 µM
  N: 0.94 ± 0.04
  ΔG: -8.68 ± 0.153 kcal/mol
  ΔH: -7.58 ± 0.261 kcal/mol
  −TΔS: -1.1 ± 0.399 kcal/mol

## CC[C@@]1(O)C(C)OCC(O)C1O (stereo partly shown) [drawing 116]
LecBPAO1 [3]
  Kd: 0.201 ± 0.042 µM
  N: 1.03 ± 0.13
  ΔG: -9.13 ± 0.129 kcal/mol
  ΔH: -12.4 ± 1.09 kcal/mol
  −TΔS: 3.2 ± 1.12 kcal/mol
LecBPA14 [4]
  Kd: 0.13 ± 0.049 µM
  N: 0.96 ± 0.04
  ΔG: -9.42 ± 0.208 kcal/mol
  ΔH: -10 ± 0.277 kcal/mol
  −TΔS: 0.619 ± 0.263 kcal/mol

## CCCC[C@@]1(O)C(C)OCC(O)C1O (stereo partly shown) [drawing 117]
LecBPAO1 [3]
  Kd: 0.401 ± 0.084 µM
  N: 1.02 ± 0.09
  ΔG: -8.75 ± 0.0956 kcal/mol
  ΔH: -11.3 ± 0.12 kcal/mol
  −TΔS: 2.51 ± 0.186 kcal/mol
LecBPA14 [4]
  Kd: 0.246 ± 0.047 µM
  N: 1.03 ± 0.08
  ΔG: -9.01 ± 0.115 kcal/mol
  ΔH: -9.42 ± 0.0096 kcal/mol
  −TΔS: 0.394 ± 0.117 kcal/mol

## CC1O[C@H](CNC(=O)/C=C/c2ccccc2)C(O)C(O)[C@@H]1O (stereo partly shown) [drawing 118]
LecBPAO1 [3]
  Kd: 3.09 ± 0.84 µM
  N: 0.93 ± 0.01
  ΔG: -7.53 ± 0.165 kcal/mol
  ΔH: -7.86 ± 0.394 kcal/mol
  −TΔS: 0.327 ± 0.32 kcal/mol
LecBPA14 [4]
  Kd: 2.59 ± 0.39 µM
  N: 1.07 ± 0.05
  ΔG: -7.29 ± 0.523 kcal/mol
  ΔH: -7.5 ± 0.344 kcal/mol
  −TΔS: 0.21 ± 0.239 kcal/mol

## Cc1cc(C)c(S(=O)(=O)NC[C@H]2OC(C)[C@@H](O)C(O)C2O)c(C)c1 (stereo partly shown) [drawing 119]
LecBPAO1 [3]
  Kd: 1.27 ± 0.12 µM
  N: 0.99 ± 0.04
  ΔG: -8.03 ± 0.0574 kcal/mol
  ΔH: -8.41 ± 0.0096 kcal/mol
  −TΔS: 0.363 ± 0.0502 kcal/mol
LecBPA14 [4]
  Kd: 0.31 ± 0.05 µM
  N: 0.98 ± 0.05
  ΔG: -8.87 ± 0.105 kcal/mol
  ΔH: -9.03 ± 0.88 kcal/mol
  −TΔS: 0.155 ± 0.774 kcal/mol
